The results in this text go back to paper PMC6225253, “Chemical Constituents and Antidepressant-Like Effects in Ovariectomized Mice of the Ethanol Extract of Alternanthera philoxeroides” (Molecules : A Journal of Synthetic Chemistry and Natural …, 2018).

The term Ki denotes a dissociation constant, usually derived from enzyme kinetics or from competition with a known ligand. For orientation: melting point means the temperature, or range, at which the solid turns liquid. The term IC50 denotes the midpoint of a concentration-inhibition curve.

For one data set, the target named is T1, recombinant human MAO-B (Homo sapiens, UniProt P27338).
T1 construct: purchased Sigma-Aldrich
T1 sequence (P27338 1-520): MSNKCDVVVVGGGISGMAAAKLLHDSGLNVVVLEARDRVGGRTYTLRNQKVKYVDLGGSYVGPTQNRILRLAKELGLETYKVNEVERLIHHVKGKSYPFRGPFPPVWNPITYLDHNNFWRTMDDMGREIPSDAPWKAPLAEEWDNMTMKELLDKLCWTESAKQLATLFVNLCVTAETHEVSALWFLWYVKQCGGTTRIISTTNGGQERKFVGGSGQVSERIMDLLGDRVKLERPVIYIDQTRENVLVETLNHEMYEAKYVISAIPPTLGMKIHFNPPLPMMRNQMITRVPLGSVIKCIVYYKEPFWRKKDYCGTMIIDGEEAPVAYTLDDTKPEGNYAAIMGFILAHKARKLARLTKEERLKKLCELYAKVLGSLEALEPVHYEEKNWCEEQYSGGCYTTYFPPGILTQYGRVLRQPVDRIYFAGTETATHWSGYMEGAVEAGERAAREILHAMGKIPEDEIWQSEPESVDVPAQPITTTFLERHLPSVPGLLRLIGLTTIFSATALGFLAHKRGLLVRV
Briefly: Human MAO-B inhibitory assay (kynuramine, fluorescence of 4-hydroxyquinoline). The format is biochemical. As to conditions: for Ki: from IC50 by Cheng–Prusoff, Km 22.7 μM; for Si MAO-B (selectivity index between MAO-A and MAO-B): ratio of Ki values; for Isoform selectivity from the selectivity index, MAO-B: based on Si; for IC50: recombinant human MAO-B, kynuramine, pH 7.4, 37 °C, 20 min, mean ± SD. As for the experimental part: (§1) The crude ethanol extract of A. philoxeroides, together with its constituents, alternanthin (1a), althernanthin B (1b), torosaflavone E (3a), dimethyltorosaflavone D (3b) and chrysoeriol 7-rhamnoside (5) were tested for their inhibitory activity on MAO-A and MAO-B, using the recombinant human MAO-A and MAO-B. The rates of MAO catalysis was determined by measuring the production of 4-hydroxyquinoline by fluorescence spectrophotometry. […] For this purpose, Km values for the oxidation of kynuramine by MAO-A and MAO-B were used from previous studies, i.e., 16.1 μM for human MAO-A and 22.7 μM for human MAO-B [15].
(§2) The MAOs inhibitory activity assay of the A. philoxeroides extract and some of its flavonoid constituents, using recombinant human MAO-A and MAO-B (Sigma-Aldrich, St. Louis, MO, USA) as enzyme sources, was performed according to the method described by Manley-King et al.. Briefly, the crude extract 100 mg was dissolved in 400 µL DMSO to prepare 250 mg/mL as a stock solution. Serial dilution of test samples (20 µL) for each concentration was used to test the activity. For 1a, 1b, 3a, 3b and 5, a stock solution of 1000 μM in DMSO was prepared and a serial dilution of the test sample (20 μL) of each concentration was used to test the activity. Concentration of MAOs was 0.0075 mg/mL for MAO-A inhibitor test, 9 µL of kynuramine (Sigma-Aldrich, St. Louis, MO, USA) was mixed with 469.5 µL of potassium phosphate buffer (pH 7.4). For MAO-B inhibitor test, 6 µL of kynuramine was mixed with 472.5 µL of potassium phosphate buffer (pH 7.4). Then 1.5 µL of the enzymes were added before incubation at 37 °C for 20 min. The reaction was stopped by adding 400 µL of 2N NaOH and 1000 µL of water. Measurement of 4-hydroxyquinoline (Sigma-Aldrich, St. Louis, MO, USA) was carried out by fluorescence spectrophotometry with the excitation wavelength at 310 nm and the emission wavelength at 400 nm. […] Data were analyzed by Prism 5 software package (GraphPad Software, version 5, San Diego, CA, USA). The IC50 values were converted to the corresponding Ki values according to the equation Ki = IC50/(1+[S]/Km).

The target of a further data set is T2, recombinant human MAO-A (Homo sapiens, UniProt P21397).
T2 construct: purchased Sigma-Aldrich
T2 sequence (P21397 1-527): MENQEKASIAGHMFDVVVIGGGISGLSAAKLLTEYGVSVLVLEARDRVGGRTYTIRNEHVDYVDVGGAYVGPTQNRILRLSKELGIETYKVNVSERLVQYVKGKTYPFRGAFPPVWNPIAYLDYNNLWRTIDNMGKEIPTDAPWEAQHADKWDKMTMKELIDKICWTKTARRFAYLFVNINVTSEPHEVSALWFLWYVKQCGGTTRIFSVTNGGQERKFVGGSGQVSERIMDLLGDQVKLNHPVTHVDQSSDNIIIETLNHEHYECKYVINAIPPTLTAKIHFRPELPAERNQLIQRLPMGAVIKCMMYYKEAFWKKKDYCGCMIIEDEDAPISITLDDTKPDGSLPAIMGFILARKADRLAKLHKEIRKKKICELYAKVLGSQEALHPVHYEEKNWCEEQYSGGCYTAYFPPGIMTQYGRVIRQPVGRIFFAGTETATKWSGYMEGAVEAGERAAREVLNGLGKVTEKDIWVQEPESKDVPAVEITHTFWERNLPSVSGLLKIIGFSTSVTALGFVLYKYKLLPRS
In words: Human MAO-A inhibitory assay (kynuramine, fluorescence of 4-hydroxyquinoline). The format is biochemical. As to conditions: for Ki: from IC50 by Cheng–Prusoff, Km 16.1 μM; for Si MAO-A (selectivity index between MAO-A and MAO-B): ratio of Ki values; for IC50: recombinant human MAO-A, kynuramine, pH 7.4, 37 °C, 20 min, mean ± SD. As for the experimental part: as §1, §2

Take `COc1cc(-c2cc(=O)c3c(O)c([C@H]4C[C@H](O)[C@@H](O)[C@@H](C)O4)c(O)cc3o2)ccc1O` [Compound 1a, altheranthin]: at recombinant human MAO-B, the Ki turned out to be 0.26 nM; the “Si MAO-B (selectivity index between MAO-A and MAO-B)” value is listed as 2.1364. Further, the “Isoform selectivity from the selectivity index, MAO-A” value at recombinant human MAO-A (based on Si) is given as “partially selective for MAO-A isoform”. Moreover, on recombinant human MAO-A, the inhibition constant Ki was found to be 0.12 nM; the “Si MAO-A (selectivity index between MAO-A and MAO-B)” value is on record as 0.4681.
Consider `COc1cc(-c2cc(=O)c3c(O)c(/C=C/C(=O)O)c(O)cc3o2)ccc1O` [Compound 3a, torosaflavone E], for which the melting point was in the range of 250 to 252 °C. Moreover, on recombinant human MAO-B, the “Isoform selectivity from the selectivity index, MAO-B” value was “partially selective for MAO-B isoform”; the inhibition constant Ki is 290 nM; the “Si MAO-B (selectivity index between MAO-A and MAO-B)” value was 0.0601; the IC50 is 675 ± 460 nM. Further, at recombinant human MAO-A, the Ki amounted to 4840 nM; the “Si MAO-A (selectivity index between MAO-A and MAO-B)” value is on record as 16.6534; the IC50 was found to be 18400 ± 1470 nM.
With `O=C(O)/C=C/c1c(O)cc2oc(-c3ccc(O)c(O)c3)cc(=O)c2c1O` [Compound 3b, demethyltorosaflavone D], at recombinant human MAO-B, the “Isoform selectivity from the selectivity index, MAO-B” value is given as “partially selective for MAO-B isoform”; the Ki amounted to 55.7 nM; the “Si MAO-B (selectivity index between MAO-A and MAO-B)” value was found to be 0.4193; the IC50 worked out at 129 nM. In addition, at recombinant human MAO-A, the inhibition constant Ki was determined as 133 nM; the “Si MAO-A (selectivity index between MAO-A and MAO-B)” value was 2.3850.
Turning to `COc1cc(-c2cc(=O)c3c(O)cc(O[C@@H]4O[C@@H](C)[C@H](O)[C@@H](O)[C@H]4O)cc3o2)ccc1O` [Compound 5, chrysoeriol 7-O-rhamnoside], at recombinant human MAO-B, the “Isoform selectivity from the selectivity index, MAO-B” value is “partially selective for MAO-B isoform”; the Ki was determined as 234 nM; the “Si MAO-B (selectivity index between MAO-A and MAO-B)” value is listed as 0.2915; the IC50 is 544 ± 330 nM. In addition, at recombinant human MAO-A, the Ki was determined as 804 nM; the “Si MAO-A (selectivity index between MAO-A and MAO-B)” value is 3.4303; the IC50 came to 3050 ± 350 nM.
For `C[C@H]1O[C@@H](c2c(O)cc3oc(-c4ccc(O)c(O)c4)cc(=O)c3c2O)C[C@H](O)[C@H]1O` [Compound 1b, alternanthin B], at recombinant human MAO-B, the “Isoform selectivity from the selectivity index, MAO-B” value is on record as “partially selective for MAO-B isoform”; the inhibition constant Ki was 0.1 nM; the “Si MAO-B (selectivity index between MAO-A and MAO-B)” value came to 0.1764. At recombinant human MAO-A, the Ki worked out at 0.54 nM; the “Si MAO-A (selectivity index between MAO-A and MAO-B)” value is given as 5.6681; the IC50 is 2.06 nM.
